Data published in patent publication US12648948B2, “Methods and compositions for treating cancer” (UNITED STATES GOVERNMENT AS REPRESENTED BY THE DEPARTMENT …, priority 2017, dated 2026).

Assays:
[1] = tested on: JNK-Axl-ERK signaling pathway; test: Western blot, erlotinib-induced JNK-Axl-ERK signaling pathway in glioma cells; type: cell-based, human; settings: GBM9, GBM39 neurospheres and U87EGFRwt cells
Experimental: Western blot analysis was performed according to standard protocols.

GBM9 cells = test: Annexin-FACS assay and Caspase 3/7 activation; type: cell-based, human; settings: GBM9 cells, 72 h, Annexin-FACS
Experimental: Annexin assay was performed by using Annexin—V-FLUOS Staining kit (Roche applied Science). Cells (1×10^6) were plated in 6 well plates and treated with drugs or vehicle alone. After 72 hours cells were trypsinized and washed 2 times with 1×PBS. The cells were incubated for 15 minutes at room temperature with Propidium Iodide and Annexin—V-FLUOS labeling solution in incubation buffer. Annexin and/or PI positive cells were detected by Flow Cytometry.
Caspase activity in the supernatant was measured using the Caspase-Glo 3/7 Assay (Promega, G8091) following manufacturer's instructions. Briefly, 72 hours after treatments, cells were washed by cold PBS and total cell lysates were prepared. 50 μg of total protein per sample was added per well of a 96 well plate and was incubated with 100 μl Caspase 3/7 reagent for 30 minutes. The luminescence of each sample was measured using a luminometer. All experiments included at least 3 replicates per group and were repeated 3 times.

[2] = tested on: U87EGFRwt and U87EGFRvIII cells; test: AlamarBlue cell viability assay, established GBM cell lines; type: cell-based, human; settings: established GBM cell lines, 72 h; for Cell viability, inhibitor alone: without erlotinib
Experimental: (§1) Cell viability assay was conducted using AlamarBlue cell viability assay kit (ThermoFisher) following manufacturer's protocol. Cells were cultured in Corning 96-well black plates with clear bottom (5000 cells/well). Drugs were added to cells for 72 hour following detection using POLARstar Omega Microplate Reader (excitation at 544 nm and emission at 590 nm) (BMG LABTECH, Germany).

[3] = tested on: GBM9 and GBM39 neurospheres; test: AlamarBlue cell viability assay, patient derived GBM neurospheres; type: cell-based, human; settings: 72 h; for Cell viability, inhibitor combined with erlotinib: erlotinib 100 nM, SP600125, U0126, R428, thalidomide 1 μM, Enbrel 100 nM; for Cell viability, inhibitor alone: without erlotinib, 1 μM
Experimental: as §1

GBM = settings: cited from earlier work
[4] = mouse, in vivo
GBM9 subcutaneous tumors = test: Subcutaneous GBM9 xenograft tumor growth; type: in vivo, athymic nude mice; settings: erlotinib 50 mg/kg oral gavage, SP600125 40 mg/kg i.p., thalidomide 150 mg/kg i.p., daily for 10 days
Experimental: 4 to 6 weeks old female athymic nude mice were purchased from Charles River Laboratories. The mice were housed in plastic cages (4-5 mice per cage) in a room with a 12 hour day-night cycle. 1×10^6 GBM9 cells were subcutaneously injected into the right flank of each nude mouse. […] The mice were randomly divided into control and treatment groups, mice were treated with drugs using the indicated doses. For combination treatment, both drugs were given concurrently for indicated periods. Tumor dimensions were measured by caliper every two days and tumor volumes calculated by the formula: volume=length×width×width/2. Mice were sacrificed when tumors reached over […] or 24 days from the first day of treatment.

TNF = TNF mRNA (qRT-PCR) and TNF ELISA in glioma cells; type: cell-based, human; settings: GBM9 and U87EGFRwt, thalidomide 1 μM
Experimental: Total RNA was isolated by TRIzol Reagent (Ambion). cDNA Reverse Transcription were performed by using High-Capacity cDNA Reverse Transcription Kit (Applied Biosystems). PCR primers were synthesized by IDT (Coralville, IA). Each PCR was carried out in triplicate in a 20 μl volume using SYBR Green Master Mix (Applied Biosystems) for 15 minutes at 95° C. for initial denaturing, followed by 40 cycles of 95° C. for 15 s and 60° C. for 60 s in ViiA 7 Real-Time PCR System (Applied Biosystems). At least two independent experiments were done. Values for each gene were normalized to expression levels of GAPDH mRNA.
2×10^6 cells were incubated in serum-free or EGF free medium containing different concentrations of erlotinib or DMSO. After 48 hours, supernatant and cell lysates were collected. Supernatant medium was concentrated 5-10-fold with Pierce protein concentrator (ThermoFisher). TNF protein concentration in supernatant, cell lysates and tissue extracts was determined by ELISA using a commercial TNF detection kit (ThermoFisher) according to manufacturer's instructions. Additionally, GAS6 protein concentration in supernatant was measured by ELISA kit (LifeSpan BioSciences).

GBM9 intracranial tumors = test: Orthotopic (intracranial) GBM9 model, survival and bioluminescence imaging; settings: erlotinib 50 mg/kg oral gavage and/or thalidomide 150 mg/kg i.p., 10 days; repeated with afatinib
Experimental: For the orthotropic model, 1×10^5 GBM9 cells expressing firefly luciferase were injected into the right corpus striatum of the brains of 6-8-week-old nude mice using a stereotactic frame. […] The mice were treated with erlotinib 50 mg/kg by oral gavage and/or intraperitoneal (i.p.) injection of 150 mg/kg thalidomide for 10 consecutive days. Bioluminescence imaging (BLI) was performed to record the growth of tumor every 5 days. Kaplan-Maier survival curves were calculated using GraphPad Prism 7.0 software. Mice were monitored and sacrificed when neurological signs appeared or after 40 days.

[5] = tested on: JNK-Axl-ERK signaling axis; test: Signal transduction in intracranial GBM9 tumors (Western blot, IHC); type: in vivo, mice; settings: thalidomide given with erlotinib
Experimental: To detect the in vivo levels of TNF, 1×10^6 GBM9 cells were injected into the right flanks of nude mice. When the subcutaneous tumor reached a volume of around 200 mm^3, the mice were treated with erlotinib to monitor the upregulation of TNF protein. The animals were dosed consecutively for 1, 2, 7 or 14 days and then sacrificed. The animals without treatment were considered as control (0-day treatment). Tumor tissues were rinsed in PBS and protein was extracted to analyze the TNF levels using ELISA and also used for western blot. To detect the protein expression in mice brain tumor tissues upon drug treatment, the same procedure was performed in orthotopic models. Additionally, with orthotopic models, mice were divided into four groups (control gavage group, erlotinib group, thalidomide group and erlotinib plus thalidomide, n=3). After 48 hours treatment tumors were harvested and subjected to Western blot and immunostaining.
Tumors from nude mice brains were fixed in 10% formalin and embedded in paraffin. Paraffin-embedded sections were cut at five-micrometer thickness. Immunohistochemical staining was performed using the ABC streptavidin-biotin method with the Vectastain ABC kit (Vector Laboratories, Burlingame, CA, USA) according to the manufacturer's protocol. Briefly, after deparaffinization and rehydration, endogenous peroxidase activity was quenched by a 10 min incubation in 3% H2O2. For antigen retrieval, the tissue sections were boiled in 10 mM sodium citrate buffer (pH 6.0) for 20 minutes. Binding of primary anti-pERK (1:100, Cell Signaling Technology, 4376) or anti-pJNK antibody (1:200, Cell signaling Technology, 4668) or anti-pAXL(1:400, R&D, AF2228) was carried out overnight at 4° C. The signal was detected by using the Sigmafast 3,3′-Diaminobenzidine tablets (DAB; Sigma, St. Louis MO). The sections were counterstained lightly with hematoxylin. The IHC staining intensity was scored semiquantitatively as: 0=No positive staining; 1=1-25% tumor cells stained, 2=26%-75% tumor cells stained and 3=>75% tumor cells stained.

[6] = tested on: primary embryonic cultures and differentiated PC12 cells; settings: at dosages that inhibit activation of JNKs, after trophic withdrawal; cited from earlier work
EGFR = test: Western blot, EGFR activation in U87EGFRwt cells; type: cell-based, human; settings: serum starved, cetuximab overnight, EGF 50 ng/ml 15 min
ERK = test: Western blot, ERK activation (pERK) in glioma cells; settings: U87EGFRwt cells, serum starved; cetuximab overnight; EGF 50 ng/ml 15 min
Experimental: Western blot analysis was performed according to standard protocols. In all experiments, before the addition of EGF or erlotinib established cells were cultured overnight in serum free DMEM and primary GBM neurospheres were EGF starved overnight. Cells not treated with EGF or erlotinib were also serum or EGF starved.

[7] = single-arm phase II trial, GBM patients at first recurrence

With Etanercept the “Erlotinib-induced activation of the JNK-Axl-ERK signaling pathway in presence of TNF inhibitor” value [1] was “interruption of the erlotinib-induced activation of the JNK-Axl-ERK signaling pathway”, the “Number of viable (unstained) cells, inhibitor combined with erlotinib” value (“Number … inhibitor combined with erlotinib” below) (GBM9 cells) was “decreases the number of viable cells” and the “Cell viability, inhibitor combined with erlotinib” value (“Cell viability, inhibitor combined” below) [2] was “sensitive to the effects of EGFR inhibition”. The “Cell viability, inhibitor combined” value [3] was “sensitive to the effects of EGFR inhibition”.

For `Nc1nc(Nc2ccc3c(c2)CC[C@@H](N2CCCC2)CC3)nn1-c1cc2c(nn1)-c1ccccc1CCC2` [R428], the “Number … inhibitor combined with erlotinib” value (GBM9 cells) was “decreases the number of viable cells”, the “Cell viability, inhibitor combined” value [2] was “sensitive to erlotinib” and the “Cell viability, inhibitor alone” value [2] was “does not affect the viability of these cells”. The “Cell viability, inhibitor combined” value [3] was “sensitive to erlotinib” and the “Cell viability, inhibitor alone” value [3] was “does not affect the viability of these cells”.

For `N#CC(=C(/N)Sc1ccccc1N)/C(C#N)=C(\N)Sc1ccccc1N` [U0126], the “Number … inhibitor combined with erlotinib” value (GBM9 cells) was “decreases the number of viable cells”, the “Cell viability, inhibitor combined” value [2] was “a combined inhibition of EGFR with ERK or JNK leads to a significant cell death” and the “Cell viability, inhibitor alone” value [2] was “also resistant to EGFR inhibition or JNK inhibition or ERK inhibition alone”. The “Cell viability, inhibitor combined” value [3] was “significant cell death” and the “Cell viability, inhibitor alone” value [3] was “resistant to JNK or ERK inhibition alone”.

For `COc1cc2ncnc(Nc3ccc(F)c(Cl)c3)c2cc1OCCCN1CCOCC1` [gefitinib], the “Median overall survival (OS)” value (GBM; [7]) is given as “about 39 weeks” and the Radiographic responses (GBM; [7]) is given as “No radiographic responses”.

With `O=C1CCC(N2C(=O)c3ccccc3C2=O)C(=O)N1` (stereo not shown) [thalidomide] the “Body weight of orthotopic models” value [4] was “Body weight losses”, the “Erlotinib-induced activation of the JNK-Axl-ERK signaling pathway in presence of TNF inhibitor” value [1] was “interruption of the erlotinib-induced activation of the JNK-Axl-ERK signaling pathway” and the “Number … inhibitor combined with erlotinib” value (GBM9 cells) was “decreases the number of viable cells”. For the same compound, the “Cell viability, inhibitor combined” value [2] was “had the same effect”, the “Growth of subcutaneous tumors” value (GBM9 subcutaneous tumors) was “no significant effect on the growth of tumors” and the “Erlotinib-induced increase in TNF secretion in presence of thalidomide” value (TNF) was “block the erlotinib-induced increase in TNF secretion”. The “Clinical efficacy in GBM patients” value (GBM; human, in vivo) was “without success”, the “Cell viability, thalidomide combined with afatinib” value ([3]; afatinib 100 nM, thalidomide 1 μM) was “sensitizes” and the “Cell viability, inhibitor combined” value [3] was “had the same effect”. The Survival of mice (GBM9 intracranial tumors) was “neither erlotinib nor thalidomide alone had a significant effect”, the “JNK-Axl-ERK signaling axis in intracranial tumors (Western blot)” value ([5]; erlotinib 50 mg/kg) was “blocked the EGFR inhibition induced upregulation of the TNF-JNK-Axl-ERK signaling axis” and the “pAxl, pJNK and pERK immunostaining of brain sections” value ([5]; orthotopic model) was “inhibits erlotinib induced pAxl-pJNK-pERK activation”.

For `CCSCc1ccc2c(c1)c1c3c(c4c5cc(CSCC)ccc5n5c4c1n2[C@H]1C[C@](O)(C(=O)OC)[C@]5(C)O1)CNC3=O` [CEP-1347], the Neuronal survival [6] is listed as “promotes neuronal survival”.

With “EGF: Recombinant human EGF from Peprotech” the “Basal EGFR activation” value (EGFR) was “further increases in EGFR and ERK activation” and the “Basal ERK activation” value (ERK) was “further increases in EGFR and ERK activation”.
